Here are results for two molecules from publication PMC9380671, “Development of spiro-3-indolin-2-one containing compounds of antiproliferative and anti-SARS-CoV-2 properties” (Scientific Reports, 2022).

Molecules are shown by their SMILES.

The term CC50 denotes the concentration that lowers cell viability or growth by half. Read a low CC50 as greater toxicity to the cells. The term IC50 denotes the midpoint of a concentration-inhibition curve.

Data set [1] has as its system MCF7 (breast cancer cell line). The data set is described as follows: Annexin V-FITC apoptosis/necrosis studies. It is filed as cell-based, human. The note with it: MCF7, compound at its MTT IC50. The text has this:
It is also notable that both the tested compounds increase the apoptosis of the tested cancer cells. Moreover, the total amount of apoptosis for the tested cell line is higher for compound 6m than that for 6l (total number of apoptosis = 38.41, 42.55 for compounds 6l and 6m, respectively). […] On the other hand, necrosis observed for compound 6m is relatively higher than that of compound 6l (necrosis = 3.01, 3.96 for compounds 6l and 6m, respectively). […] These observations agree with the antiproliferation properties observed through MTT assay (Table 3, Fig. 8).
Cell cycle studies for the most promising agents synthesized (6l and 6m) against MCF7 (breast) cancer call were conducted by the standard technique. The Cells were suspended in DMEM medium in addition to 1% antibiotic–antimycotic mixture (10000 μg ml^-1 potassium penicillin, 10000 μg ml^-1 streptomycin sulfate and 25 μg ml^-1 amphotericin B), 10% fetal bovine serum and 1% L-glutamine at 37 °C, under 5% CO2 and 95% humidity. Cells were seeded at concentration of 30000 cells per well in fresh complete growth medium in 96-well tissue culture microtiter plates for 24 h. Media was aspirated, fresh complete medium was added and cells were incubated with the IC50 concentration of the tested compounds which determined previously in the MTT antiproliferation testing assay. The ab139418-Propidium Iodide Flow Cytometry kit for cycle analysis (reader: BD FACS Calibur)^8 was used for cell cycle analysis. The Annexin V-FITC Apoptosis Detection Kit (Catalog#K101-25) was utilized for apoptosis studies.^9 All the studies were conducted according to the manufacturer’s instruction.

Data set [2] in a line: MTT cytotoxicity assay (CC50). It is filed as cell-based. The note with it: African green monkey, VERO-E6 cells. In short, it runs like this: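 VERO-E6 cells seeded at 3 x 10^5 cell/ml, grown 24 h at 37 °C, then exposed to compounds in triplicate for 24 h. Viability by MTT (4 h, 37 °C), formazan in acidified isopropanol read at 570 nm; CC50 by nonlinear regression versus untreated cells.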

The target of a further data set is BChE (Homo sapiens, UniProt P06276). Nature of the data set: BChE inhibition (DTNB, butyrylthiocholine iodide).
BChE, sequence (P06276 29-602, species assumed): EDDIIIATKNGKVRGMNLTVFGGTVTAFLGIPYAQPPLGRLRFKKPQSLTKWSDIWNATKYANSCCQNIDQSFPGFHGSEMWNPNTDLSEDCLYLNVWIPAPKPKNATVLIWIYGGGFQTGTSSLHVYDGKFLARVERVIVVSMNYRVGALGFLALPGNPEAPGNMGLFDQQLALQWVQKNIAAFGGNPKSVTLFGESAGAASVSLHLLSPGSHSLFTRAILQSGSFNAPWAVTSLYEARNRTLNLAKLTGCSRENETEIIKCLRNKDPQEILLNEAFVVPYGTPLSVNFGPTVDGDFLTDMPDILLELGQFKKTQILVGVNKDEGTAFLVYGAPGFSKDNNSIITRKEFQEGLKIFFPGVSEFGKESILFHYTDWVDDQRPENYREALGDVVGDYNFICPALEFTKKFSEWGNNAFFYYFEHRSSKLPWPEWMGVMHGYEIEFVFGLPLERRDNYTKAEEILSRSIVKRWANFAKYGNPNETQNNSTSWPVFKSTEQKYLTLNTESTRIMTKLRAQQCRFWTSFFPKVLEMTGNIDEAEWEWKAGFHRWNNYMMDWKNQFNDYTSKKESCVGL
Another data set concerns the target T1, EGFR (Homo sapiens, UniProt P00533).
T1 construct: Western blot technique was considered for EGFR and VEGFR-2 properties determination; endogenous in cells; host or cells: MCF7 (breast cancer cell line)
It is filed as cell-based. The note with it: western blot, MCF7, compound at its MTT IC50; for EGFR RQ (relative quantification): control RQ 3.4461. In short, it runs like this:
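Western blot of MCF7 breast cancer cells, each agent tested at its own IC50 from the MTT assay on that line, following the manufacturer's instructions.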
A general note: Immunoblotting shows a protein as a band on a membrane.

The test system of data set [3] is MCF7 (breast) cancer cell line. Nature of the data set: MTT antiproliferation, MCF7. The settings on record: for IC50: Homo sapiens, MCF7, 72 h, read-out: IC50 (µM) ± SEM MCF7; for SI (selectivity index) MCF7: IC50 of RPE1/IC50 of cancer cell line. In kind it is cell-based, human. In short, it runs like this:
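Cells seeded 30000/well for 24 h, then treated for 72 h with triplicate wells per dose; 0.5% DMSO as negative control. MTT (2.5 mg ml^-1) added for 4 h at 37 °C, crystals dissolved in 10% SDS overnight. Surviving fraction = O.D. treated / O.D. control.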

T1 sequence (P00533 25-1210): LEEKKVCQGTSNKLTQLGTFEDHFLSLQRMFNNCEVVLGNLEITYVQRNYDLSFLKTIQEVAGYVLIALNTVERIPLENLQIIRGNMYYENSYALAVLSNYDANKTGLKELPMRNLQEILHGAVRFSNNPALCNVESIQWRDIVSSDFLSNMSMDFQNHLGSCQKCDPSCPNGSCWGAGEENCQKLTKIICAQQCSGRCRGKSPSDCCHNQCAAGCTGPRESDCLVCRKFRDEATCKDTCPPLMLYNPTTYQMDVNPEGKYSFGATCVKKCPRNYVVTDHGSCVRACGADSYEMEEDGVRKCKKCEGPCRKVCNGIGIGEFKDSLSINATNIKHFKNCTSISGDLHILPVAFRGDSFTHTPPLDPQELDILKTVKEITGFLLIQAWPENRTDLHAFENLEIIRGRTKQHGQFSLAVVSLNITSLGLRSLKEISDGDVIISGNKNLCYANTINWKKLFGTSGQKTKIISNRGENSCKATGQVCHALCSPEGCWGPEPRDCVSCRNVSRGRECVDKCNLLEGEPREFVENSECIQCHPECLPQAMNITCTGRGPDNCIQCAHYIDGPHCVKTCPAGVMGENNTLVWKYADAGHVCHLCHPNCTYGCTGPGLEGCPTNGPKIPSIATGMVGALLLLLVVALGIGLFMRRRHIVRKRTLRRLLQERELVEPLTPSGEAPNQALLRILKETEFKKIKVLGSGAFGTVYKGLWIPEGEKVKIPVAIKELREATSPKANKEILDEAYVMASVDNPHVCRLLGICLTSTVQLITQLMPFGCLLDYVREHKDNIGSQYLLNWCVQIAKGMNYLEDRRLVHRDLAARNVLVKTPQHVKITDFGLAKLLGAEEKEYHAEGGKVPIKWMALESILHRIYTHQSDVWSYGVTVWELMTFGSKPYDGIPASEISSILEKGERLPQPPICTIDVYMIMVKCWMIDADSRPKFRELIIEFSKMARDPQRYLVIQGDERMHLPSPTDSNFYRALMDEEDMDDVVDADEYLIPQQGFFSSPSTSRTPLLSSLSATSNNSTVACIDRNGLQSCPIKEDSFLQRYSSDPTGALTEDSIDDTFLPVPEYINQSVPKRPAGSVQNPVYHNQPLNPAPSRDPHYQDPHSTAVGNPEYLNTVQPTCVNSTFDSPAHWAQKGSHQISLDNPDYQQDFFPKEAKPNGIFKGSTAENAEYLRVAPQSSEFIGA
Experimental for BChE: Butyrylthiocholine iodide and acetylthiocholine were utilized as substrates in BChE and AChE assays, respectively, where DTNB was served as indicator. All compounds were dissolved in MeOH. […] Blank assays were performed by replacing the enzyme (20 μL) with buffer and their absorbances were recorded for correction of the spontaneous lysis of the indicator or inherent color of the inhibitor.
% Inhibition = [1−(corrected A/corrected B)] * 100

Consider `CN1CC(c2ccc(Br)cc2)C2(CN(S(C)(=O)=O)C/C(=C\c3ccc(Br)cc3)C2=O)C12C(=O)Nc1ccccc12` (centres unmarked) [Compound 6m, (E)-5″-(4-Bromobenzylidene)-4′-(4-bromophenyl)-1′-methyl-1″-(methylsulfonyl)dispiro[indoline-3,2′-pyrrolidine-3′,3″-piperidine]-2,4″-dione], for which, in data set [1], the “Apoptosis (%) Early” value was 24.88%, the “Apoptosis (%) Late” value is 13.71%, the “Apoptosis (%) Total” value was 42.55% and the Necrosis is 3.96%. Half-maximal cytotoxicity in data set [2] (CC50 at 24 h) was put at 160 µM. In addition, it took 27.9 ± 2.96 µM to reach half-maximal inhibition at BChE (IC50). At EGFR, the “EGFR % Inhibition” value is 65.6% and the “EGFR RQ (relative quantification)” value was found to be 1.1845. Also, in data set [3], the IC50 came to 3.6 ± 0.19 µM and the “SI (selectivity index) MCF7” value worked out at 4.1.
In the case of `CCS(=O)(=O)N1C/C(=C\c2ccc(Cl)cc2)C(=O)C2(C1)C(c1ccc(Cl)cc1)CN(C)C21C(=O)Nc2ccc(Cl)cc21` (centres unmarked) [Compound 6l, (E)-5-Chloro-5″-(4-chlorobenzylidene)-4′-(4-chlorophenyl)-1″-(ethylsulfonyl)-1′-methyldispiro[indoline-3,2′-pyrrolidine-3′,3″-piperidine]-2,4″-dione], in data set [1], the “Apoptosis (%) Early” value turned out to be 14.39%, the “Apoptosis (%) Late” value came to 21.01%, the “Apoptosis (%) Total” value is listed as 38.41% and the Necrosis is 3.01%. Besides, half-maximal cytotoxicity in data set [2] (CC50 at 24 h) was put at 476 µM. Besides, the midpoint of inhibition against BChE, the IC50, lay at 11.8 ± 0.95 µM. For the same molecule, on EGFR, the “EGFR % Inhibition” value worked out at 65.7% and the “EGFR RQ (relative quantification)” value was 1.18. Further, in data set [3], the IC50 amounted to 3.99 ± 0.31 µM and the “SI (selectivity index) MCF7” value is given as more than 12.5.
